In patent US20050019267A1, “Macromolecular imaging agents for liver imaging” (priority 2001, published 2005):

What was measured:
[1] = in vivo; cited from earlier work
[2] = system: LS174T intrahepatic micro-metastases; assay type: in vivo
[3] = 0.03 mmolGd/kg DAB-Am64-(1B4M-Gd)64 or 0.1 mmolGd/kg dimeglumine-DTPA-Gd, dynamic MRI 0-25 min

CCOc1ccc(CC(CN(CCN(CC(=O)[O-])CC(=O)[O-])CC(=O)[O-])N(CC(=O)[O-])CC(=O)[O-])cc1.[Gd+3].[Na+].[Na+] (stereo not shown) [Eovist, [Gd(EOB-DTPA)(H2O)]^2−]
excreted via the liver [1]: roughly 50%

CNC[C@H](O)[C@@H](O)[C@H](O)[C@H](O)CO.CNC[C@H](O)[C@@H](O)[C@H](O)[C@H](O)CO.O=C([O-])CN(CCN(CC(=O)[O-])CC(=O)O)CCN(CC(=O)O)C(COCc1ccccc1)C(=O)[O-].[Gd+3] (stereo not shown) [MultiHance, [Gd(BOPTA)(H2O)]^2−]
excreted via the liver [1]: 2-4%

CNC[C@H](O)[C@@H](O)[C@H](O)[C@H](O)CO.CNC[C@H](O)[C@@H](O)[C@H](O)[C@H](O)CO.O=C([O-])CN(CCN(CC(=O)[O-])CC(=O)O)CCN(CC(=O)[O-])CC(=O)O.[Gd+3] [dimeglumine-DTPA-Gd]
MRI signal intensity for blood vessels (portal and hepatic veins) [2, 3]: much lower | MRI signal intensity in the tumors [2, 3]: comparable | MRI signal intensity in the liver ([2]; 0.03 mmolGd/kg DAB-Am64-(1B4M-Gd)64 or 0.1 mmolGd/kg dimeglumine-DTPA-Gd, dynamic MRI 0-25 min, comparator worded relative to DAB agent): much lower | liver-to-tumor image intensity ratio ([2]; 0.1 mmolGd/kg dimeglumine-DTPA-Gd versus 0.03 mmolGd/kg DAB-Am64-(1B4M-Gd)64, all time points): significantly less | tumors with more than 2 mm diameter detected by MRI (of 18) ([2]; same mice, n=5, 1-day interval, 0.03 mmolGd/kg DAB agent, 0.1 mmolGd/kg dimeglumine-DTPA-Gd): 18
